{"source": "patent US20060194814A1", "about": "“Benzamide compounds” (priority 2003, published 2006)", "key": {"Y1 cells": {"system": "Y1 cells", "assay": "dbcAMP and mevalonate-supported 20á-hydroxyprogesterone formation in Y1 cells", "assay_type": "cell-based, mouse", "design": "dose or concentration left out as unconfirmed", "details": "procaine", "method": "(§1) Culture media were then changed and cells were stimulated with 1 mM dbcAMP and the treatment for 24 to 48 hours. […] The synthesis of 20 —OH progesterone and progesterone in Y1 and MA-10 cell media respectively were measured by RIA (Brown et al., 1992). H295R human adrenal tumor cells were seeded in 48-well plates at 10^5 cells/well and incubated for 24 hours. […] At the end of the incubation time period, cells were treated with 1 mM dbcAMP for 48 hours. Cortisol levels in the media were determined by radioimmunoassay as previously described (Amri et al., 1996)."}, "P-450scc": {"target": "T1, P-450scc (Mus musculus, UniProt Q9QZ82)", "T1 construct": "endogenous in cells; host or cells: Y1 mouse adrenal tumor cells", "T1 sequence (Q9QZ82 37-526)": "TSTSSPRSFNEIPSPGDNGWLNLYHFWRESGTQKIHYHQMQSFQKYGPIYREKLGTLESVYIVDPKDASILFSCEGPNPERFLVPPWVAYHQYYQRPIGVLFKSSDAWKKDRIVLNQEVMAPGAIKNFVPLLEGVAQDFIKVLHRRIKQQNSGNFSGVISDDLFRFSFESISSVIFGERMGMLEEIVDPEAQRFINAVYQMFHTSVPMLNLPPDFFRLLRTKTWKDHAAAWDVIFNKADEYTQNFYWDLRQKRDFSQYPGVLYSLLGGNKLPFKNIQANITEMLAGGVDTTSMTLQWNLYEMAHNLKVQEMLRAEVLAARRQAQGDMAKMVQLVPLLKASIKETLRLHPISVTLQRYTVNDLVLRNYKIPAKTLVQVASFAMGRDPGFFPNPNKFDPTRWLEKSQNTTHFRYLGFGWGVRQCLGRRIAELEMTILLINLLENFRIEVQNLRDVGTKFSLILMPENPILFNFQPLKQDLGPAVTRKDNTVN", "assay": "22R-hydroxycholesterol-induced 20á-hydroxyprogesterone synthesis in Y1 cells", "assay_type": "cell-based", "method": "as §1, with “Culture media were then changed and cells were stimulated with 1 mM dbcAMP and the treatment for 24 to 48 hours.” left out"}, "HIV-1 IIIB strain": {"system": "HIV-1 IIIB strain", "assay": "HIV-1 IIIB replication in HeLa cells, 48 hours pre-medication", "assay_type": "cell-based", "details": "48 hours pretreatment; all concentrations tested"}, "[1]": {"system": "H295R human adrenal tumor cells", "assay": "dbcAMP-induced cortisol synthesis in H295R cells", "assay_type": "cell-based", "method": "as §1"}, "HeLa cells": {"system": "HeLa cells", "assay": "MTT cytotoxicity assay after the HIV replication protocol", "assay_type": "cell-based, human", "details": "all concentrations tested, up to 100 μM"}, "HMG-CoA reductase": {"target": "T2, HMG-CoA reductase (Mus musculus, UniProt Q01237)", "T2 construct": "endogenous in cells; host or cells: Y1 mouse adrenal tumor cells", "T2 sequence (Q01237 1-887)": "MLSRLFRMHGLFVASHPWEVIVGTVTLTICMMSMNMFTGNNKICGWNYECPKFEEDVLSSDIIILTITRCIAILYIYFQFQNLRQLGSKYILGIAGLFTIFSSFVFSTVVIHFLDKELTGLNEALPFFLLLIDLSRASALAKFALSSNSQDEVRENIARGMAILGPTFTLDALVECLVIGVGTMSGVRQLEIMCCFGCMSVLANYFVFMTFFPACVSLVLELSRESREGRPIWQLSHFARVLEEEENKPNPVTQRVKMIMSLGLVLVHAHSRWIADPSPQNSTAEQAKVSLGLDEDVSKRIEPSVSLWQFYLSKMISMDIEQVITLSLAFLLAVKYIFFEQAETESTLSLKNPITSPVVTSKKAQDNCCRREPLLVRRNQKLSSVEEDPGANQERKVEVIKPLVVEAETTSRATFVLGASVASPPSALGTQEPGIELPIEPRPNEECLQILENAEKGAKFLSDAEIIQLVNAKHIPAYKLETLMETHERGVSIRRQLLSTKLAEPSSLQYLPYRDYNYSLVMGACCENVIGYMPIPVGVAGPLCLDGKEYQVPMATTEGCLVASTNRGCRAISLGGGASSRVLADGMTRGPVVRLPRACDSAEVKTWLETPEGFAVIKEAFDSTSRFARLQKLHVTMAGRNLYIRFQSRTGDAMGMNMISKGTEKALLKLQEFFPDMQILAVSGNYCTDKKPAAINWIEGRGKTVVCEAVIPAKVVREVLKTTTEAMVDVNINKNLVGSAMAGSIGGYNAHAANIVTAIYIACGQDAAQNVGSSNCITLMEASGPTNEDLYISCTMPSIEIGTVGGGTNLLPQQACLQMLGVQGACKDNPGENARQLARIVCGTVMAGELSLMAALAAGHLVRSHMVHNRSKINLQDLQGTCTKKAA", "assay": "Direct effect on HMG-CoA reductase activity in sonicated Y1 cell homogenates", "assay_type": "biochemical", "details": "sonicated Y1 cells", "method": "Cells were washed twice with ice-cold PBS and incubated with ice-cold assay buffer (0.1M sucrose, 40 mM KH2PO4, 30 mM EDTA, 50 mM KCl, 5 mM DTT, 0.25% (v/v) of Brij 96, at pH 7.4) on ice for 20 minutes. After centrifugation for 3 minutes at 14000 g (4° C.) the supernatants were collected and used for HMG-CoA reductase activity assay. The total 150 l assay mixture contained 100-200 g protein and the NADPH-generating system (2.5 mM NADP, 20 mM glucose 6-phosphate and 20 U/ml glucose 6-phosphate dehydrogenase). The reaction was started by adding substrate (^14C-HMG-CoA, 0.1 Ci) and stopped after 45 minutes by adding 10-1 of HCl 6M. ^3H-mevalonolactone was also added to the samples as an extraction recovery marker. After an additional 30 minutes incubation time, to allow complete lactonization of the product, the mixture was centrifuged. The supernatant was applied to Bond-Elut NH2 column and eluted with 1 ml of toluene/acetone (3:1). The eluate was discarded and further 4 ml of toluene/acetone was applied to the column and collected in a scintillation vial for counting ^14C-mevalonate and ^3H-mevalonolactone signals (Berkhout et al., 1990).\nIn separate experiments cells were disrupted by sonication and then treated with procaine. The direct effect of the treatment on HMG-CoA reductase activity in the homogenates was determined as described above."}}, "note": "Where a name gives a salt, the structure may show the parent alone.", "data": [{"smiles": "CCN(CC)CCOC(=O)c1ccc(N)cc1", "note": "[SP01, procaine HCl]", "values": [{"measurement": "effect on dbcAMP and mevalonate-supported 20á-hydroxyprogesterone formation", "setting": "Y1 cells", "value": "did not inhibit"}, {"measurement": "effect on 22R-hydroxycholesterol-induced steroidogenesis", "setting": "P-450scc", "value": "did not inhibit"}, {"measurement": "inhibition of HIV replication", "setting": "HIV-1 IIIB strain", "value": 75, "unit": "%"}, {"measurement": "effect on dbcAMP-stimulated cortisol production", "setting": "[1]", "value": "inhibited the dbcAMP-stimulated cortisol production in a dose-dependent manner"}, {"measurement": "effect on basal cortisol production", "setting": "[1]; basal", "value": "without effecting basal cortisol production"}, {"measurement": "cell toxicity (MTT)", "setting": "HeLa cells", "value": "devoid of cell toxicity"}, {"measurement": "direct effect on HMG-CoA reductase activity", "setting": "HMG-CoA reductase", "value": "No direct effect"}, {"measurement": "HMG-CoA reductase activity", "setting": "HMG-CoA reductase; 1 μM procaine", "value": "9.9±0.01", "unit": "pmol/min/mg protein"}, {"measurement": "HMG-CoA reductase activity", "setting": "HMG-CoA reductase; 10 μM procaine", "value": "10.3±0.6", "unit": "pmol/min/mg protein"}, {"measurement": "HMG-CoA reductase activity", "setting": "HMG-CoA reductase; 100 μM procaine", "value": "10.1±0.1", "unit": "pmol/min/mg protein"}]}]}
